Experimental data as given in US12016899B2, “Compositions comprising Sel1-derived peptides and methods of treatment/prevention of excess oxalate levels and associated conditions/diseases therewith” (The University of Chicago, priority 2018, dated 2024).
Entries after “also recorded” stand apart in the source; their conditions may differ. Primed or numbered codes have the meaning given here. Where no end group is shown, it is not given here. [ ]: non-standard residue; d: D form. PEG6′ = Peg: PEG6 in place of glycine

Tests used:
[1] = test system: human intestinal Caco2-BBE (C2) cells; assay: 14C-oxalate influx (oxalate transport) by Caco2-BBE (C2) cells; assay type: cell-based; conditions: for effect of trace element added to P8 or P9 on oxalate transport, in words: C2 cells, versus peptide alone
Experimental: Toward this end, Of culture conditioned medium (CM) was prepared as recently reported (Ref. 4; herein incorporated by reference in its entirety) and human intestinal Caco2-BBE (C2) cells were used to evaluate the effects of Of CM on intestinal oxalate transport. Apical oxalate uptake by C2 cells was measured by imposing an outward Cl gradient by removing extracellular Cl [Cli>Clo] (Refs. 3, 4, 14; incorporated by reference in their entireties) and measuring DIDS (anion exchange inhibitor)-sensitive influx of 14C-oxalate in exchange for intracellular Cl [i.e. apical Cl-oxalate exchange activity, ≥49% of which is mediated by the oxalate transporter SLC26A6 (A6) in C2 cells (4, 12))].
The inventors sought to identify trace elements to better stimulate oxalate transport by facilitating the binding of P8 and/or P9 to a cell surface receptor. The inventors analyzed combinations of P8 and P9 alone or with aluminum, zinc, or magnesium by measuring C14 oxalate transport in C2 cells.

[2] = test system: human distal colon organoid; assay: oxalate transport by human distal colon organoid; assay type: cell-based
Experimental: (§1) Although the transformed C2 cells resemble the native epithelium, they don't fully recapitulate the in vivo physiological responses. Primary stem-cell derived intestinal organoids (Orgs) were recently established as an ex vivo model of the intestinal epithelium, and they mimic the full spectrum of physiological responses in vivo. Therefore, experiments were conducted during development of embodiments herein to confirm the C2 findings in colonic organoids.
(§2) To recapitulate the findings in vivo, primary stem-cell derived intestinal organoids (Org) were used which have been established as an ex vivo model of the intestinal epithelium with a full spectrum of physiological responses found in vivo (Ref. 35; incorporated by reference in its entirety). A human sigmoid colonic Org (from a healthy individual) was grown and maintained as previously reported (Ref. 34; incorporated by reference in its entirety). Org cells were plated onto collagen-coated transwell filters and formed monolayers. Monolayer confluency and differentiation was confirmed by transepithelial electrical resistance measurements (Ref. 34; incorporated by reference in its entirety).

[3] = test system: human sigmoid colon organoid; assay: oxalate transport by human sigmoid colon organoid; assay type: cell-based
Experimental: as §1, §2

human ileum organoid = assay: oxalate transport by human ileum organoid; assay type: cell-based; conditions: 500 μM DIDS; ileum Org
[4] = test system: human intestinal Caco2-BBE (C2) cells; conditions: cited from earlier work; for stimulation of oxalate transport by cells (Sel1 proteins), in words: PCT/US18/14494

Ac-AKAQYGLGILYAKGQGVAPDQEKALILYRMAATQG [Peptide P9-Ac]
stimulation of oxalate transport (14C-oxalate influx) by C2 cells, in words ([1]; Caco2-BBE cells, listed as P9 with N-terminal acetylation): significantly stimulate | stimulation of oxalate transport by distal colon organoid, in words [2]: significantly stimulate | stimulation of oxalate transport by sigmoid colon organoid, in words [3]: significantly stimulate

DAQYMLGAMSVEGIGLPKDSQVALTWLSKAAAQGD-Am (DAQYMLGAMSVEGIGLPKDSQVALTWLSKAAAQGD-NH2) [Peptide P8-Am]
stimulation of oxalate transport (14C-oxalate influx) by C2 cells, in words ([1]; Caco2-BBE cells, listed as P8 with C-terminal amidation): significantly stimulate

DAQYMLGAMSVEGI(d-alanine)LPKDSQVALTWLSKAAAQGD (DAQYMLGAMSVEGI[dA]LPKDSQVALTWLSKAAAQGD) [Peptide P8-Daa]
stimulation of oxalate transport (14C-oxalate influx) by C2 cells, in words ([1]; Caco2-BBE cells, listed as P8 with G15 replaced with D-alanine): similarly stimulated; also recorded: significantly stimulate

O=S(=O)(O)c1cc(N=C=S)ccc1C=Cc1ccc(N=C=S)cc1S(=O)(=O)O [DIDS, reference compound]
inhibition of oxalate transport (human ileum organoid): ~80% | inhibition of 14C-oxalate influx ([3]; 100 μM DIDS, sigmoid colonic Org): ~70%

AKAQYGLGILYAKGQGVAPDQEKALILYRMAATQG-Am (AKAQYGLGILYAKGQGVAPDQEKALILYRMAATQG-NH2) [Peptide P9-Am]
stimulation of oxalate transport (14C-oxalate influx) by C2 cells, in words ([1]; Caco2-BBE cells, listed as P9 with C-terminal amidation): significantly stimulate | stimulation of oxalate transport by distal colon organoid, in words [2]: significantly stimulate | stimulation of oxalate transport by sigmoid colon organoid, in words [3]: significantly stimulate

QSQYNLGIAYEEGWGAEKNPENAVFWYRKAAEQGH [Peptide P4]
stimulation of oxalate transport (14C-oxalate influx) by C2 cells ([1]; Caco2-BBE cells): 1.5 fold

[Cl-].[Cl-].[Zn+2] [zinc chloride]
effect of trace element added to P8 or P9 on oxalate transport, in words [1]: not

ARAQFNLGKTFYIGAGINKNTDKAVYWFIKAANQG [Peptide P5]
stimulation of oxalate transport (14C-oxalate influx) by C2 cells, in words ([1]; Caco2-BBE cells): no effects

AKAQYGLGILYAKGQ(d-alanine)VAPDQEKALILYRMAATQG (AKAQYGLGILYAKGQ[dA]VAPDQEKALILYRMAATQG) [Peptide P9-Daa]
stimulation of oxalate transport (14C-oxalate influx) by C2 cells, in words ([1]; Caco2-BBE cells, listed as P9 with G16 replaced with D-alanine): similarly stimulated; also recorded: significantly stimulate | stimulation of oxalate transport by distal colon organoid, in words [2]: significantly stimulate | stimulation of oxalate transport by sigmoid colon organoid, in words [3]: significantly stimulate

O=S(=O)(NCCNC/C=C/c1ccc(Br)cc1)c1cccc2cnccc12 [Peptide H89, H89, reference compound]
effect of pretreatment on CM-induced oxalate transport ([4]; PKA inhibitor pretreatment, Ref. 4): completely blocked

ESQNNLGALYNDGNGVDRDYQEAVFWYRKSALQGD [Peptide P6]
stimulation of oxalate transport (14C-oxalate influx) by C2 cells, in words ([1]; Caco2-BBE cells): no effects

DAQYMLA(Peg)MSVE(Peg)I(Peg)LPKDSQVALTWLSKAAAQ(Peg)D (DAQYMLA[PEG6′]MSVE[PEG6′]I[PEG6′]LPKDSQVALTWLSKAAAQ[PEG6′]D) [Peptide P8-Peg]
stimulation of oxalate transport (14C-oxalate influx) by C2 cells, in words ([1]; Caco2-BBE cells, listed as P8 with all glycines replaced with PEG6): similarly stimulated; also recorded: significantly stimulate

[Al] [aluminum]
effect of trace element added to P8 or P9 on oxalate transport, in words [1]: did not result in increased oxalate transport

AKAQY(Peg)L(Peg)ILYAK(Peg)Q(Peg)VAPDQEKALILYRMAATQ(Peg) (AKAQY[PEG6′]L[PEG6′]ILYAK[PEG6′]Q[PEG6′]VAPDQEKALILYRMAATQ[PEG6′]) [Peptide P9-Peg]
stimulation of oxalate transport (14C-oxalate influx) by C2 cells, in words ([1]; Caco2-BBE cells, listed as P9 with all glycines replaced with PEG6): similarly stimulated; also recorded: significantly stimulate

Ac-DAQYMLGAMSVEGIGLPKDSQVALTWLSKAAAQGD [Peptide P8-Ac]
stimulation of oxalate transport (14C-oxalate influx) by C2 cells, in words ([1]; Caco2-BBE cells, listed as P8 with N-terminal acetylation): significantly stimulate

B1: 301: Sel1 protein 301 (54 kDa) of Oxalobacter formigenes (protein)
chain: MSSVIADSQQPAVSEENANKIILDEEKAVIQCNERYKTENDEKGDEETVSWCRKAAKSGNAEAQYLFGMLVYDGRGVQQDNCVAMLWWMKAAEQNHAKALVMLGNLHRKGQCIAENYPKAIAYWKRAAVQNNVWAYHNLGTAYYDGIGVDKNPHEAVRWWKKAAELGFPESQNNLGALYNDGNGVDRDYQEAVFWYRKSALQGDELGQYNLGVAYYYGRGIKKDFSEAVSWYKKSAEQDYAQAQHNLGVTYYEGEGIKKDYAKAVYWWKKAAEQGIPQSQYNLGIAYEEGWGAEKNPENAVFWYRKAAEQGHADAQNRLGIAYRYGTGVRKNPALSVKWLEKAAKQGLARAQFNLGKTFYIGAGINKNTDKAVYWFIKAANQGFTEAQAYIGMIYFKGKYVAKNEKKGFYWLKKAAEKDSAKAQAFLGALYIAGNEVKPNIKEGVALTKKAALQGNYEAQTLLGFCYENGLEVKKDLIAAYALYLSASPHFDFAEKARLDLERKLSEQEIAKAISVNTAKLFE
stimulation of oxalate transport by cells (Sel1 proteins), in words [4]: significantly stimulating; also recorded: most potent stimulators

B2: 318: Sel1 protein 318 (52 kDa) of Oxalobacter formigenes (protein)
chain: MKRRVLYGVLFAVLAGCSAGALASVSGLSDGLAQLERRQFESAYATLMPEAEKGNPRAALEVGKLLLTGRGVAKDEAAAVKWLLVAADSGNRDAQYMLGAMSVEGIGLPKDSQVALTWLSKAAAQGDARAKTALGILMQSAGPGSQHTEQAARWFERAAASGEPEAQRRWALMLASGRGVAKNEGEALKWFKKAAVAGDVEAQRNLGIMLSTGKGVTGGKPDFAEAARWYGLAAKKGDAKAQYGLGILYAKGQGVAPDQEKALILYRMAATQGLATAEYAVGLAYAYGRGTAQNDVKAADWFEAAAQQGVVRAQYNLALMLEAGRGRPVDTVAASKWFLMAAEKGLREAQYNMGYHYAEGKGVPRDQGKAVFWYEKAAAAGDVKAQYNLGMLYLNGVNGKADDEKAAFFYRMAAGAGYGPAMYRLAVLYEEGRGVKQSYQLAGEWYERADLAAKVKIDEAMKKNPHPFVQRTLQVPDDLNQSSDKLAGH
stimulation of oxalate transport by cells (Sel1 proteins), in words [4]: significantly stimulating; also recorded: most potent stimulators
